Reference: ChEMBL document CHEMBL4665701, “Discovery and Characterization of Clinical Candidate LXE408 as a Kinetoplastid-Selective Proteasome Inhibitor for the Treatment of Leishmaniases” (J Med Chem, 2020)
The source made the active and inactive calls. No cut-off for these calls is given here.

Columns and labels:
in vitro [1] = settings: rat, liver microsomes
Description: Metabolic stability in rat liver microsomes assessed as hepatic extraction ratio after 1 hr by LC-MS/MS analysis

Leishmania donovani [2] = test: Antiparasitic activity against Leishmania donovani MHOM/ET/67/HU3 (ATCC) infected in BALB/c mouse model of visceral leishmaniasis assessed as reduction in parasite burden in liver at 12 mg/kg, po QD for 8 days by qPCR analysis relative to control; assay type: functional, organism-based; settings: time 8.0 day
Leishmania donovani [3] = test: Antiparasitic activity against Leishmania donovani MHOM/ET/67/HU3 (ATCC) infected in BALB/c mouse model of visceral leishmaniasis assessed as parasite burden in liver at 12 mg/kg, po QD for 8 days by qPCR analysis (reference value: 100%); assay type: functional; settings: time 8 day
[4] = Drug level in mouse hepatocytes assessed as compound abundance level at 10 uM incubated for 4 hrs by UV chromatography; assay type: ADME, cell-based, Hepatocyte
[5] = Drug level in rat hepatocytes assessed as compound abundance level at 10 uM incubated for 4 hrs by UV chromatography; assay type: ADME, cell-based, Hepatocyte
[6] = Drug level in dog hepatocytes assessed as compound abundance level at 10 uM incubated for 4 hrs by UV chromatography; assay type: ADME, cell-based, Canis lupus familiaris, Hepatocyte
[7] = Drug level in monkey hepatocytes assessed as compound abundance level at 10 uM incubated for 4 hrs by UV chromatography; assay type: ADME, cell-based, Macaca mulatta, Hepatocyte; settings: rhesus monkey
[8] = Drug level in human hepatocytes assessed as compound abundance level at 10 uM incubated for 4 hrs by UV chromatography; assay type: ADME, cell-based, Hepatocyte
[9] = Drug uptake in beagle dog at 10 mg/kg, po measured up to 24 hrs relative to LXE408; assay type: ADME, organism-based, Canis lupus familiaris; settings: in vivo
Leishmania donovani [10] = test: Antiparasitic activity against Leishmania donovani MHOM/ET/67/HU3 (ATCC) infected in primary BALB/c mouse peritoneal macrophages assessed as reduction in parasite proliferation incubated for 120 hrs by SYBR Green I staining based assay; assay type: functional, organism-based; settings: Macrophage
Cytochrome P450 2J2 = target: T1, Cytochrome P450 2J2 (Homo sapiens, UniProt P51589); test: Drug metabolism assessed as human CYP2j2-mediated N-(4-fluoro-3-(6-(3-methylpyri din-2-yl)-[1,2,4]triazolo[1,5- a]pyrimidin-2-yl)phenyl)-2-(hy droxymethyl)-4-methyloxazole-5 -carboxamide formation; assay type: ADME; settings: recombinant enzyme
T1 sequence (P51589 whole entry): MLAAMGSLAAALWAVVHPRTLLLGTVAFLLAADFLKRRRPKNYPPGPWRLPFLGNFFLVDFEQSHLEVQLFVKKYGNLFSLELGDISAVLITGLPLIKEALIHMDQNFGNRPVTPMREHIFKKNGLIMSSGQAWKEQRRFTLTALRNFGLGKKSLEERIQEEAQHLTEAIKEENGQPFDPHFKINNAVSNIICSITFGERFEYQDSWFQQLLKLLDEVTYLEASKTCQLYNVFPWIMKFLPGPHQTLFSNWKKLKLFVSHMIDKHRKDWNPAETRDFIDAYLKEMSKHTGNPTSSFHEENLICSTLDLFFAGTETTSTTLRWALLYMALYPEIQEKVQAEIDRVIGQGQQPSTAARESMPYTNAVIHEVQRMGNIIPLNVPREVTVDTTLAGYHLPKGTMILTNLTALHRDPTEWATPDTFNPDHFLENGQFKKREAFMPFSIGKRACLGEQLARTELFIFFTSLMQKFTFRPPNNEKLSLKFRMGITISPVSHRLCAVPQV

Cytochrome P450 1A2 = target: T2, Cytochrome P450 1A2 (Homo sapiens, UniProt P05177); test: Drug metabolism assessed as human CYP1A2-mediated N-(4-fluoro-3-(6-(3-methylpyri din-2-yl)-[1,2,4]triazolo[1,5- a]pyrimidin-2-yl)phenyl)-2-(hy droxymethyl)-4-methyloxazole-5 -carboxamide formation; assay type: ADME; settings: recombinant enzyme
T2 sequence (P05177 whole entry): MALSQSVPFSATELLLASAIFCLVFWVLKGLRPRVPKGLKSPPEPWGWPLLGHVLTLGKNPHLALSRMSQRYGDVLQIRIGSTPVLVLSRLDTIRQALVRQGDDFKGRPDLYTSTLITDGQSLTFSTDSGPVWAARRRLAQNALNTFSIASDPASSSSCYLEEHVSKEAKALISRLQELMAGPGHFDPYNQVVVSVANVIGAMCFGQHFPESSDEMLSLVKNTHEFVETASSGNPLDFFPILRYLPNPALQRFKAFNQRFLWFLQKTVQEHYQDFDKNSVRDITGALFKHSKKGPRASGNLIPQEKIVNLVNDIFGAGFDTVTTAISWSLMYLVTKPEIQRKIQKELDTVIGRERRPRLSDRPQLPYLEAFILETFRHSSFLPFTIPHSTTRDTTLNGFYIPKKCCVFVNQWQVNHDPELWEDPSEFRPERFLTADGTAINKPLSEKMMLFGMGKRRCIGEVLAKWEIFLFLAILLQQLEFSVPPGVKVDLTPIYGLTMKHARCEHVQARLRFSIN

Cytochrome P450 1A1 = target: T3, Cytochrome P450 1A1 (Homo sapiens, UniProt P04798); test: Drug metabolism assessed as human CYP1A1-mediated N-(4-fluoro-3-(6-(3-methylpyri din-2-yl)-[1,2,4]triazolo[1,5- a]pyrimidin-2-yl)phenyl)-2-(hy droxymethyl)-4-methyloxazole-5 -carboxamide formation; assay type: ADME; settings: recombinant enzyme
T3 sequence (P04798 whole entry): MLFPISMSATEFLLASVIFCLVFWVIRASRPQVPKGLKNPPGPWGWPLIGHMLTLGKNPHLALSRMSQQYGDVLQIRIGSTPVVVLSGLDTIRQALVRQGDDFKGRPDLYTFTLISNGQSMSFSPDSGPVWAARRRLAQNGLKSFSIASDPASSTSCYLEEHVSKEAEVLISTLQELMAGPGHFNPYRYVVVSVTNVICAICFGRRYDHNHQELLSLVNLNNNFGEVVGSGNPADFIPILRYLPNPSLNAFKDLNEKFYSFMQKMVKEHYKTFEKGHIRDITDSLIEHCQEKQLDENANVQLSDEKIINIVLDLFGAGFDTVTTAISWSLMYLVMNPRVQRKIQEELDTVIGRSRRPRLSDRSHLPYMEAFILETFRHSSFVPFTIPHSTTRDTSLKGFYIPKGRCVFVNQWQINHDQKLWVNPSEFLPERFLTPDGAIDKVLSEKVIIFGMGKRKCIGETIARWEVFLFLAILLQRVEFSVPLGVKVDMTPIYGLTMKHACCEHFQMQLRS

Cytochrome P450 2D15 = target: T4, Cytochrome P450 2D15 (Canis lupus familiaris, UniProt Q29473); test: Drug metabolism assessed as dog CYP2D15-mediated N-(4-fluoro-3-(6-(3-methylpyri din-2-yl)-[1,2,4]triazolo[1,5- a]pyrimidin-2-yl)phenyl)-2-(hy droxymethyl)-4-methyloxazole-5 -carboxamide formation; assay type: ADME; settings: recombinant enzyme
T4 sequence (Q29473 whole entry): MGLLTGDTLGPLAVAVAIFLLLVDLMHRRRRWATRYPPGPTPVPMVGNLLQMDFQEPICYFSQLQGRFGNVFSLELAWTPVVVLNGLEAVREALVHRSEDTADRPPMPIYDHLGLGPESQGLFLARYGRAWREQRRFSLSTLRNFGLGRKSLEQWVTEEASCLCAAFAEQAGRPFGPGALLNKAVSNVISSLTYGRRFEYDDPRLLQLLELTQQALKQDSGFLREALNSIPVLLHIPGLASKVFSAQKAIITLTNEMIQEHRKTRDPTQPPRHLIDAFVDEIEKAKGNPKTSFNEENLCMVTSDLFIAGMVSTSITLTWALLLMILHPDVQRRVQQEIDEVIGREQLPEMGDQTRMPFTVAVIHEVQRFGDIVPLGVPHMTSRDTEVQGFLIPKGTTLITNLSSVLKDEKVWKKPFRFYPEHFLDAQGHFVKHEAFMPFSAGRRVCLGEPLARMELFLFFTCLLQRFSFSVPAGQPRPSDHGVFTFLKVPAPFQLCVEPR

Cytochrome P450 3A4 = Cytochrome P450 3A4 (Homo sapiens, UniProt P08684); test: Drug metabolism assessed as human CYP3A4-mediated N-(4-fluoro-3-(6-(3-methylpyri din-2-yl)-[1,2,4]triazolo[1,5- a]pyrimidin-2-yl)phenyl)-2-(hy droxymethyl)-4-methyloxazole-5 -carboxamide formation; assay type: ADME; settings: recombinant enzyme
Cytochrome P450 3A4, sequence (P08684 whole entry): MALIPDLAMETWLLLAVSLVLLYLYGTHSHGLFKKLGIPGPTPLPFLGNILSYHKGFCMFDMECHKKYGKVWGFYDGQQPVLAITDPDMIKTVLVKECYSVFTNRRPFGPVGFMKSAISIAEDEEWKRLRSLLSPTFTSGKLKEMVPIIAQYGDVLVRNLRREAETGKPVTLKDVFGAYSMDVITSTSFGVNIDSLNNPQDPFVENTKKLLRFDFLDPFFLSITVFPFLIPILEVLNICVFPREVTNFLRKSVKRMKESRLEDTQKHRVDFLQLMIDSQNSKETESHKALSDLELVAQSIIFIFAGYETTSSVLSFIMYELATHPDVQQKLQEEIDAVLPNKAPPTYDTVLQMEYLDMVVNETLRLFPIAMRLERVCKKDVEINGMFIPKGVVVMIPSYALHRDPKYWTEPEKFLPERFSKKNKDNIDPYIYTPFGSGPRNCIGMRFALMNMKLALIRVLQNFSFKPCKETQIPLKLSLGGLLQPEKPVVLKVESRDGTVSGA

[11] = Toxicity in rat by vivo micronucleus test
[12] = Genotoxicity in Salmonella typhimurium by Ames test; assay type: toxicity; settings: salmonella enterica subsp. enterica serovar typhimurium
Leishmania major = test: Antiparasitic activity against Leishmania major MHOM/IR/-/173 promastigotes infected in BALB/c mouse model of cutaneous leishmaniasis assessed as healing of parasite-induced skin lesions at 20 mg/kg, po BID for 10 days; assay type: functional, organism-based; settings: time 10.0 day
Leishmania donovani [13] = test: Antiparasitic activity against Leishmania donovani MHOM/ET/67/HU3 (ATCC) infected in BALB/c mouse model of visceral leishmaniasis assessed as parasite burden in liver at 0.3 mg/kg, po BID for 8 days by qPCR analysis (reference value: 100%); assay type: functional; settings: time 8 day
Leishmania donovani [14] = test: Antiparasitic activity against Leishmania donovani MHOM/ET/67/HU3 (ATCC) infected in BALB/c mouse model of visceral leishmaniasis assessed as parasite burden in liver at 1 mg/kg, po BID for 8 days by qPCR analysis (reference value: 100%); assay type: functional; settings: time 8 day
Leishmania donovani [15] = test: Antiparasitic activity against Leishmania donovani MHOM/ET/67/HU3 (ATCC) infected in BALB/c mouse model of visceral leishmaniasis assessed as parasite burden in liver at 3 mg/kg, po BID for 8 days by qPCR analysis (reference value: 100%); assay type: functional; settings: time 8 day
Leishmania donovani [16] = test: Antiparasitic activity against Leishmania donovani MHOM/ET/67/HU3 (ATCC) infected in BALB/c mouse model of visceral leishmaniasis assessed as parasite burden in liver at 10 mg/kg, po BID for 8 days by qPCR analysis (reference value: 100%); assay type: functional; settings: time 8 day
[17] = Drug concentration in plasma of Leishmania donovani MHOM/ET/67/HU3 (ATCC) infected BALB/c mouse model of visceral leishmaniasis at 0.3 to 10 mg/kg, po BID for 8 days; assay type: ADME, organism-based; settings: in vivo, 192 h, dose 0.3-10 mg/kg, time 8 day
[18] = Inhibition of chymotrypsin-like activity of Leishmania tarentolae proteasome beta 5 Y113F mutant
in vitro [19] = settings: mouse, liver microsomes
Description: Metabolic stability in mouse liver microsomes assessed as hepatic extraction ratio after 1 hr by LC-MS/MS analysis

in vitro [20] = settings: rat, liver microsomes; remark: listed apart in the source
in vitro [21] = settings: rat, liver microsomes; remark: listed apart in the source
Leishmania tarentolae [22] = test: Noncompetitive inhibition of chymotrypsin-like activity of Leishmania tarentolae proteasome beta 5 using fluorogenic peptide Suc-LLVY-[Rh110]-[Dpro] as substrate
Leishmania tarentolae [23] = test: Inhibition of chymotrypsin-like activity of Leishmania tarentolae proteasome beta 4 F24L mutant
Leishmania tarentolae [24] = test: Inhibition of chymotrypsin-like activity of Leishmania tarentolae proteasome beta 4

**Q.** Which hepatic extraction ratio at 1 h (in vitro [1]) does the source give for `Cc1nc(C)c(C(=O)Nc2ccc(F)c(-c3nc4ncc(-c5ncccc5C(F)F)cn4n3)c2)o1` here?
**A.** < 0.18

**Q.** With `CCCCCCCCCCCCCCCCOP(=O)([O-])OCC[N+](C)(C)C` [MILTEFOSINE] as the compound, how does the Activity (Leishmania donovani [2]) read?
**A.** Active

**Q.** And the Activity (Leishmania donovani [3])?
**A.** 4.2%

**Q.** Which results are given for `Cc1nc(C)c(C(=O)Nc2ccc(F)c(-c3nc4ncc(-c5ncccc5CO)cn4n3)c2)o1`?
**A.** Drug uptake [4]: <= 25%; Drug uptake [5]: <= 25%; Drug uptake [6]: <= 25%; Drug uptake [7]: <= 25%; Drug uptake [8]: <= 25%; Drug uptake [9]: 9.1%

**Q.** For `Cc1nc(CO)c(C(=O)Nc2ccc(F)c(-c3nc4ncc(-c5ncccc5C)cn4n3)c2)o1`, which Drug uptake [4] is on record?
**A.** <= 25%

**Q.** What about the Drug uptake [5] of the same compound?
**A.** <= 25%

**Q.** And the Drug uptake [6]?
**A.** <= 25%

**Q.** And the Drug uptake [7]?
**A.** <= 25%

**Q.** What about the Drug uptake [8] of the same compound?
**A.** <= 25%

**Q.** And the Drug uptake [9]?
**A.** 2.3%

**Q.** And the EC50 (Leishmania donovani [10])?
**A.** > 5 µM

**Q.** Which results are given for `Cc1nc(C)c(C(=O)Nc2ccc(F)c(-c3nc4ncc(-c5ncccc5C)cn4n3)c2)o1` [LXE-408]?
**A.** Drug metabolism (Cytochrome P450 2J2): Metabolite_Detected; Drug metabolism (Cytochrome P450 1A2): Metabolite_Detected; Drug metabolism (Cytochrome P450 1A1): Metabolite_Detected; Drug uptake [4]: > 75%; Drug uptake [5]: > 75%; Drug uptake [6]: > 75%; Drug uptake [7]: > 75%; Drug uptake [8]: > 75%; Drug metabolism (Cytochrome P450 2D15): Metabolite_Detected; Drug metabolism (Cytochrome P450 3A4): Metabolite_Detected; Activity [11]: Non-Toxic; Activity [12]: Non-Toxic; Activity (Leishmania major): Active; Activity (Leishmania donovani [13]): 85%; Activity (Leishmania donovani [14]): 5.1%; Activity (Leishmania donovani [15]): <0.2%; Activity (Leishmania donovani [16]): <0.16%; Drug uptake [17]: Dose-dependent effect; inhibition [18]: inactive

**Q.** What does the source list for `Cc1nc(C)c(C(=O)Nc2ccc(F)c(-c3nc4ncc(-c5ncccc5Cl)cn4n3)c2)o1`?
**A.** hepatic extraction ratio at 1 h (in vitro [19]): < 0.21; hepatic extraction ratio at 1 h (in vitro [20]): < 0.21; hepatic extraction ratio at 1 h (in vitro [21]): 0.21

**Q.** For `COc1cccnc1-c1cnc2nc(-c3cc(NC(=O)c4oc(C)nc4C)ccc3F)nn2c1`, which hepatic extraction ratio at 1 h (in vitro [21]) is on record?
**A.** < 0.21

**Q.** For `Cc1nc(C)c(C(=O)Nc2ccc(F)c(-c3nc4ncc(-c5ccccn5)cn4n3)c2)o1`, which inhibition (Leishmania tarentolae [22]) is on record?
**A.** Active

**Q.** With `Cc1cccnc1-c1cnc2nc(-c3cc(NC(=O)c4oc(CO)nc4C)ccc3F)nn2c1` as the compound, how does the Drug uptake [5] read?
**A.** <= 25%

**Q.** What about the Drug uptake [6] of the same compound?
**A.** 25%

**Q.** And the Drug uptake [7]?
**A.** <= 25%

**Q.** What about the Drug uptake [8] of the same compound?
**A.** <= 25%

**Q.** And the EC50 (Leishmania donovani [10])?
**A.** > 5 µM

**Q.** With `CC(C)C[C@H](NC(=O)[C@H](Cc1ccccc1)NC(=O)c1cnccn1)B(O)O` as the compound, how does the inhibition (Leishmania tarentolae [23]) read?
**A.** Active

**Q.** What about the inhibition (Leishmania tarentolae [24]) of the same compound?
**A.** Active
